Ends that are not written are not given here.
How the values were obtained:
Test in all cases: Antibacterial MIC assay (NCCLS M7-T2 microtiter broth dilution)
Type in all cases: cell-based
E.coli ATCC strain 25922 = settings: E. coli ATCC 25922; Mueller Hinton broth, 16-20 hours at 37° C.; lowest concentration giving a clear well
Description: (§1) Table I, which follows, indicates the Minimal Inhibitory Concentration (MIC) in μg/ml of Peptides (SEQ ID NO:1) through (SEQ ID NO:3), (SEQ ID NO:5), (SEQ ID NO:6), (SEQ ID NO:9) through (SEQ ID NO:11), and (SEQ ID NO:17) against S.aureus strain ATCC 25923, P. aeruginosa strain ATCC 27853, and E.coli ATCC strain 25922. The procedure for the antibacterial assay is based upon the guidelines of the National Committee for Clinical Laboratory Standards, Document M7-T2, Volume 8, No. 8, 1988. Stock solutions of peptides (SEQ ID NO: 1) through (SEQ ID NO:3), (SEQ ID NO:5), (SEQ ID NO:S), (SEQ ID NO:9) through (SEQ ID NO:12), and […] in accordance with the present invention are prepared at a concentration of 512 μg/ml in sterile deionized distilled water and stored at -70° C. Each peptide is a C-terminal amide and may or may not be acetylated at the N-Terminus. An acetyl group at the N-terminus is indicated by an X. The stock peptide solution is diluted in serial dilutions (1:2) down the wells of a microtiter plate so that the final concentrations of peptides in the wells are 0.25, 0.50, i, 2,4, 8, 16, 32, 64, 128, and 256 μg/ml. 1-5×10^5 CFUs/ml of either S. aureus ATCC 25923, E. coli ATCC 25922, or P. aeruginosa ATCC 27853 were added to the wells in full strength Mueller Hinton broth (BBL 11443) from a mid-log culture. The inoculum is standardized spectrophotometrically at 600 nm and is verified by colony counts. The plates are incubated for 16-20 hours at 37° C., and the minimal inhibitory concentration (MIC) for each peptide is determined. Minimal inhibitory concentration is defined as the lowest concentration of peptide which produces a clear well in the microtiter plate. The minimal inhibitory concentration of each of (SEQ ID NO:1) through (SEQ ID NO:3), (SEQ ID NO:5), (SEQ ID NO:6), (SEQ ID NO:9) through (SEQ ID NO:11), and (SEQ ID NO:17) is given in Table I below.

[1] = system: P. aeruginosa strain ATCC 27853; settings: P. aeruginosa ATCC 27853; Mueller Hinton broth, 16-20 hours at 37° C.; lowest concentration giving a clear well
Description: as §1

[2] = system: S. aureus strain ATCC 25923; settings: S. aureus ATCC 25923; Mueller Hinton broth, 16-20 hours at 37° C.; lowest concentration giving a clear well
Description: as §1

Ac-KKLLKKLKKLLKKLRR-NH2 [X-(SEQ ID NO: 5)-NH2]
Minimal Inhibitory Concentration E. coli (E.coli ATCC strain 25922): 32 µg/mL | Minimal Inhibitory Concentration P. aeruginosa [1]: 8 µg/mL | Minimal Inhibitory Concentration S. aureus [2]: 4 µg/mL

Ac-KLLKKLKKLLKLL-NH2 [X-(SEQ ID NO: 3)-NH2]
Minimal Inhibitory Concentration E. coli (E.coli ATCC strain 25922): 8,16 μg/ml | Minimal Inhibitory Concentration P. aeruginosa [1]: 16 µg/mL | Minimal Inhibitory Concentration S. aureus [2]: 64 µg/mL

Ac-LKKLKKLLKLL-NH2 [X-(SEQ ID NO: 1)-NH2]
Minimal Inhibitory Concentration E. coli (E.coli ATCC strain 25922): 4 µg/mL | Minimal Inhibitory Concentration P. aeruginosa [1]: 4,8 μg/ml | Minimal Inhibitory Concentration S. aureus [2]: 16 µg/mL

Ac-LKKLLKKLKKL-NH2 [X-(SEQ ID NO: 17)-NH2]
Minimal Inhibitory Concentration E. coli (E.coli ATCC strain 25922): 32,64 μg/ml | Minimal Inhibitory Concentration P. aeruginosa [1]: 8,16 μg/ml | Minimal Inhibitory Concentration S. aureus [2]: 256 µg/mL

Ac-LKLLKKLLKKNKKLLKKL-NH2 [X-(SEQ ID NO: 9)-NH2]
Minimal Inhibitory Concentration E. coli (E.coli ATCC strain 25922): 64 µg/mL | Minimal Inhibitory Concentration P. aeruginosa [1]: 8 µg/mL | Minimal Inhibitory Concentration S. aureus [2]: 16 µg/mL

Ac-LKLLKKLLKKPKKLLKKL-NH2 [X-(SEQ ID NO: 10)-NH2]
Minimal Inhibitory Concentration E. coli (E.coli ATCC strain 25922): 64 µg/mL | Minimal Inhibitory Concentration P. aeruginosa [1]: 16 µg/mL | Minimal Inhibitory Concentration S. aureus [2]: 16,32 μg/ml

Ac-LLKKLKKLLKLL-NH2 [X-(SEQ ID NO: 2)-NH2]
Minimal Inhibitory Concentration E. coli (E.coli ATCC strain 25922): 8,16 μg/ml | Minimal Inhibitory Concentration P. aeruginosa [1]: 16 µg/mL | Minimal Inhibitory Concentration S. aureus [2]: 16 µg/mL

KLLKKLKKLLKLL-NH2 [(SEQ ID NO.:3)-NH2]
Minimal Inhibitory Concentration P. aeruginosa [1]: 16 µg/mL | Minimal Inhibitory Concentration S. aureus [2]: 64 µg/mL

LKKLKKLLKLL-NH2 [(SEQ ID NO.: 1)-NH2]
Minimal Inhibitory Concentration E. coli (E.coli ATCC strain 25922): 8,16 μg/ml | Minimal Inhibitory Concentration P. aeruginosa [1]: 8,16 μg/ml | Minimal Inhibitory Concentration S. aureus [2]: 64,128 μg/ml

LKKLLKKLKKL-NH2 [(SEQ ID NO: 17)-NH2]
Minimal Inhibitory Concentration E. coli (E.coli ATCC strain 25922): 64,128 μg/ml | Minimal Inhibitory Concentration P. aeruginosa [1]: 32,64 μg/ml | Minimal Inhibitory Concentration S. aureus [2]: > 256 µg/mL

LLKKLKKLLKLL-NH2 [(SEQ ID NO.:2)-NH2]
Minimal Inhibitory Concentration E. coli (E.coli ATCC strain 25922): 8,16 μg/ml | Minimal Inhibitory Concentration P. aeruginosa [1]: 16 µg/mL | Minimal Inhibitory Concentration S. aureus [2]: 16 µg/mL

— patent US5470950A, “Biologically active amphiphilic peptide compositions and uses therefor” (Magainin Pharmaceuticals Inc., priority 1994, dated 1995)
